According to US4382889A, “Epoxysuccinic acid derivatives” (Taisho Pharmaceutical Co., Ltd., priority 1979, dated 1983):

Tests used:
[1] = Concentration of test compound in rat plasma after subcutaneous administration; format: in vivo; conditions: sc, 50 mg/kg, an hour after administration
Method: The compounds of the present invention are better absorbed by the subcutaneous route in mammals such as rats or rabbits, as compared with the epoxysuccinic acid derivatives of the German Patent Laid Open Application described above and Chemical Abstracts, 87, 68129a (1977). To determine absorption, these compounds were administered subcutaneously to rat at a dose of 50 mg/kg, and the concentration of the test compound in rat plasma at an hour after the administration was shown in Table 1.

[2] = target: T1, papain (Carica papaya, UniProt P00784); assay: Papain inhibitory activity (method of K. Hanada et al); format: biochemical; conditions: papain 80 ug/ml, Sigma, 2 x cry.
T1 construct: purchased Sigma Chem. Co
T1 sequence (P00784 134-345): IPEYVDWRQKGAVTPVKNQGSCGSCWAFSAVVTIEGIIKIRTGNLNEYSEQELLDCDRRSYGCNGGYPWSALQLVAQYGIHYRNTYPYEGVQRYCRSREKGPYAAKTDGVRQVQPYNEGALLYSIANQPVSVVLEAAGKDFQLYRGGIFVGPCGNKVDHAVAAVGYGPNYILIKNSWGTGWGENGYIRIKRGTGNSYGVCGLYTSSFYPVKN
Method: Papain inhibitory activity of the compounds of the present invention was assayed by the method of K. Hanada et al, [Argric. Biol. Chem., 42, No. 3, 523(1978)] using papain (80 ug/ml, Sigma Chem. Co., 2 x cry.).

[3] = target: T2, calcium-activated neutral thiolprotease (CANP) (Gallus gallus, UniProt P00789); assay: CANP inhibitory activity (method of Ishiura et al); format: biochemical; conditions: 50% inhibition as molar ratio to the enzyme; CANP from muscle of hereditary muscular dystrophy chicken
T2 construct: CANP prepared from a muscle of hereditary muscular dystrophy chicken; from tissue; host or cells: muscle of hereditary muscular dystrophy chicken
T2 sequence (P00789 1-705): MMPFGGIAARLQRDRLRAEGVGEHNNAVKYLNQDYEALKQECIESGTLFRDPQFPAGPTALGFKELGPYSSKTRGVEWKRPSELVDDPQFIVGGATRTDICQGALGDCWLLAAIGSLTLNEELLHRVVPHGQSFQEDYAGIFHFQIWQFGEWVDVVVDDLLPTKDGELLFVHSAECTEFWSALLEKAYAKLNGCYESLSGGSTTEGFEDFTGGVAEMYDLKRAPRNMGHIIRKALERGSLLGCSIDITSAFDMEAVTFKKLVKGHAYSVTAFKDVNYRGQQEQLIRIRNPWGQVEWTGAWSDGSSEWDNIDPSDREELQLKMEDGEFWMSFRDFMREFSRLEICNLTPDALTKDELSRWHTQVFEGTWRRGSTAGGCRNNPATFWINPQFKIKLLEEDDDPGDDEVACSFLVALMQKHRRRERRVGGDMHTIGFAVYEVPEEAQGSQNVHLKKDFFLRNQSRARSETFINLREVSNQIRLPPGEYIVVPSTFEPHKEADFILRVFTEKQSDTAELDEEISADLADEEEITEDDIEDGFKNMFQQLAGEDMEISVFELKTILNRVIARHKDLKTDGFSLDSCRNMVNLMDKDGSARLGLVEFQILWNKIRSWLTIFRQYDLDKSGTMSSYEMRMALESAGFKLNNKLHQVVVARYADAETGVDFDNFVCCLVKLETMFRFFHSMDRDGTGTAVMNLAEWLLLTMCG
Method: Their muscular dystrophy inhibitory activity was assayed by the method of Ishiura et al, [J. of Biochem., 84, 225(1978)] using CANP prepared from a muscle of hereditary muscular dystrophy chicken, and the resulting value for 50% inhibition in the molar ratios for the enzyme expressed as ID50 (mole/mole) is shown in Table 1.

concentration at 1 h [1] [ng/mL]	CANP Inhibitory Activity ID50 (mole/mole) [3]	Compound	Papain ID50 (amount of inhibitor for 50% inhibition) [2] [µg]
< 1000	580 mole/mole	CCOC(=O)C1OC1C(=O)N[C@@H](CC(C)C)C(=O)OCc1ccccc1 (stereo partly drawn) [C, N--(3ethoxy-carbonyloxirane-2-carbonyl)-L-leucine benzyl ester, reference compound]	–
–	–	CCOC(=O)[C@H](Cc1ccccc1)NC(=O)[C@H](CC(C)C)NC(=O)C1OC1C(=O)OCc1ccccc1 (some centres unmarked) [Compound 31]	0.375
–	–	CCOC(=O)C1OC1C(=O)N[C@@H](CC(C)C)C(=O)N1CCCC1 (mixture of isomers) [Compound 3, N-[N'-(DL-3-trans-ethoxycarbonyloxirane-2-carbonyl)-L-leucyl]pyrrolidine]	1.10
–	–	COC(=O)[C@H](CCCN=C(N)N[N+](=O)[O-])NC(=O)[C@H](CC(C)C)NC(=O)C1OC1C(=O)OCc1ccccc1 (mixture of isomers) [Compound 26, N-(DL-3-trans-benzyloxycarbonyloxirane-2-carbonyl)-L-leucyl-N^G -nitro-L-arginine methyl ester]	0.139
< 1000	4,600 mole/mole	CC(C)C[C@H](NC(=O)C1OC1C(=O)O)C(=O)O (stereo partly drawn) [E, N--(3carboxyoxirane-2-carbonyl)-L-leucine, reference compound]	–
–	–	CCOC(=O)C1OC1C(=O)N[C@@H](CC(C)C)C(=O)N1CCCCC1 (mixture of isomers) [Compound 4, N-[N'-(DL-3-trans-ethoxycarbonyloxirane-2-carbonyl)-L-leucyl]piperidine]	0.417
–	–	CC(C)C[C@H](NC(=O)[C@H](CC(C)C)NC(=O)C1OC1C(=O)OCc1ccccc1)C(N)=O (some centres unmarked) [Compound 34]	0.298
–	–	CCOC(=O)CNC(=O)[C@@H](NC(=O)C1OC1C(=O)OCc1ccccc1)C(C)CC (some centres unmarked) [Compound 40]	0.481
–	–	CC(C)C[C@H](NC(=O)C1OC1C(=O)OC1CCCCC1)C(=O)NC1CCCCC1 (mixture of isomers) [Compound 13, N-[N'-(DL-3-trans-cyclohexyloxycarbonyloxirane-2-carbonyl)-L-leucyl]cyclohexylamine]	0.255
–	–	COC(=O)[C@@H](CC(C)C)NC(=O)[C@@H](CC(C)C)NC(=O)C1OC1C(=O)OCc1ccccc1 (some centres unmarked) [Compound 33]	0.255
–	–	COC(=O)[C@@H](CC(C)C)NC(=O)[C@H](CC(C)C)NC(=O)C1OC1C(=O)OCc1ccccc1 (mixture of isomers) [Compound 23, N-(DL-3-trans-benzyloxycarbonyloxirane-2-carbonyl)-L-leucyl-D-leucine methyl ester]	0.221
–	–	COC(=O)[C@@H](NC(=O)[C@H](CC(C)C)NC(=O)C1OC1C(=O)OCc1ccccc1)[C@@H](C)O (some centres unmarked) [Compound 29]	0.35
–	–	COC(=O)[C@H](CC(C)C)NC(=O)[C@H](CC(C)C)NC(=O)C1OC1C(=O)OCc1ccccc1 (some centres unmarked) [Compound 32]	0.227
< 1000	5,400 mole/mole	CCOC(=O)[C@H]1O[C@@H]1C(=O)O (relative stereo) [A, Ethyl hydrogen epoxysuccinate, reference compound]	–
–	–	CC(C)C[C@H](NC(=O)C1OC1C(=O)O)C(=O)N[C@@H](CCCN)C(=O)O (mixture of isomers) [Compound 44, N-(DL-3-trans-carboxyoxirane-2-carbonyl)-L-leucyl-L-ornithine]	0.250
–	–	CCOC(=O)C1OC1C(=O)N[C@@H](CC(C)C)C(=O)N[C@@H](CC(C)C)C(=O)N(C)C (some centres unmarked) [Compound 35]	0.212
–	–	COC(=O)[C@@H](CC(C)C)NC(=O)[C@H](CC(C)C)NC(=O)[C@H]1O[C@@H]1C(=O)OCc1ccccc1 [Compound 25, N-(L-3-trans-benzyloxycarbonyloxirane-2-carbonyl)-L-leucyl-D-leucine methyl ester]	0.223
–	–	CC(C)C[C@H](NC(=O)C1OC1C(=O)O)C(=O)N[C@@H](CC(C)C)C(=O)OCc1ccccc1 (mixture of isomers) [Compound 48, N-(DL-3-trans-carboxyoxirane-2-carbonyl)-L-leucyl-L-leucine benzyl ester]	0.215
–	–	CCC(C)[C@H](NC(=O)C1OC1C(=O)OCc1ccccc1)C(=O)N[C@@H](Cc1c[nH]c2ccccc12)C(=O)OC (some centres unmarked) [Compound 38]	0.305
–	–	COC(=O)[C@H](Cc1ccccc1)NC(=O)[C@H](Cc1ccccc1)NC(=O)C1OC1C(=O)OCc1ccccc1 (some centres unmarked) [Compound 37]	2.50
–	–	CCOC(=O)C1OC1C(=O)N[C@@H](Cc1ccccc1)C(=O)N[C@@H](Cc1ccccc1)C(=O)OC (mixture of isomers) [Compound 18, N-(DL-3-trans-ethoxycarbonyloxirane-2-carbonyl-L-phenylalanyl-L-phenylalaninemethyl ester]	29.07
–	–	CC(C)C[C@H](NC(=O)C1OC1C(=O)OC1CCCC1)C(=O)NC1CCCC1 (mixture of isomers) [Compound 14, N-[N'-(DL-3-trans-cycloentyloxycarbonyl)-L-leucyl]cyclopentylamine]	0.187
–	–	COC(=O)[C@@H]1CCCN1C(=O)[C@H](CC(C)C)NC(=O)C1OC1C(=O)O (mixture of isomers) [Compound 46, N-(DL-3-trans-carboxyoxirane-2-carbonyl)-L-leucyl-L-proline methyl ester]	0.105
< 1000	410 mole/mole	O=C(O)[C@H]1O[C@@H]1C(=O)OCc1ccccc1 (relative stereo) [B, Benzyl hydrogen epoxysuccinate, reference compound]	–
–	–	COC(=O)CC[C@H](NC(=O)[C@H](CC(C)C)NC(=O)C1OC1C(=O)OCc1ccccc1)C(=O)OC (mixture of isomers) [Compound 20, N-(DL-3-trans-benzyloxycarbonyloxirane-2-carbonyl)-L-leucyl-L-gluamic acid dimethyl ester]	0.255
< 1000	574 mole/mole	O=C(O)C1OC1C(=O)N[C@@H](Cc1ccccc1)C(=O)OCc1ccccc1 (stereo partly drawn) [D, N--(3carboxyoxirane-2-carbonyl)-L-phenylalanine benzyl ester, reference compound]	–
–	–	CCOC(=O)C1OC1C(=O)N[C@@H](CC(C)C)C(=O)NCCc1ccccc1 (some centres unmarked) [Compound 8]	0.446

Compound	concentration at 1 h [1] [ng/mL]	CANP Inhibitory Activity ID50 (mole/mole) [3]	Papain ID50 (amount of inhibitor for 50% inhibition) [2] [µg]
COC(=O)[C@H](C)NC(=O)[C@@H](NC(=O)C1OC1C(=O)OCc1ccccc1)C(C)C (some centres unmarked) [Compound 42]	1100	120 mole/mole	0.595
CC(C)C[C@H](NC(=O)[C@H](CC(C)C)NC(=O)C1OC1C(=O)O)C(=O)O (mixture of isomers) [Compound 45, N-(DL-3-trans-carboxyoxirane-2-carbonyl)-L-leucyl-L-leucine]	15000	64 mole/mole	0.236
COC(=O)[C@@H]1CCCN1C(=O)[C@H](CC(C)C)NC(=O)C1OC1C(=O)OCc1ccccc1 (mixture of isomers) [Compound 19, N-(DL-3-trans-benzyloxycarbonyloxirane-2-carbonyl)-L-leucyl-L-proline methyl ester]	1500	23 mole/mole	0.123
